Publication PMC9120017, “Inhibition mechanism of the chloride channel TMEM16A by the pore blocker 1PBC” (Nature Communications, 2022)
Read-outs that look alike come from different tables or passages of the source.

Molecular target: T1, mouse TMEM16A mutant I516A (Mus musculus, UniProt Q8BHY3, I516A)
T1 construct: expressed in transfected cells; host or cells: HEK293T
T1 sequence (Q8BHY3 1-960 I516A): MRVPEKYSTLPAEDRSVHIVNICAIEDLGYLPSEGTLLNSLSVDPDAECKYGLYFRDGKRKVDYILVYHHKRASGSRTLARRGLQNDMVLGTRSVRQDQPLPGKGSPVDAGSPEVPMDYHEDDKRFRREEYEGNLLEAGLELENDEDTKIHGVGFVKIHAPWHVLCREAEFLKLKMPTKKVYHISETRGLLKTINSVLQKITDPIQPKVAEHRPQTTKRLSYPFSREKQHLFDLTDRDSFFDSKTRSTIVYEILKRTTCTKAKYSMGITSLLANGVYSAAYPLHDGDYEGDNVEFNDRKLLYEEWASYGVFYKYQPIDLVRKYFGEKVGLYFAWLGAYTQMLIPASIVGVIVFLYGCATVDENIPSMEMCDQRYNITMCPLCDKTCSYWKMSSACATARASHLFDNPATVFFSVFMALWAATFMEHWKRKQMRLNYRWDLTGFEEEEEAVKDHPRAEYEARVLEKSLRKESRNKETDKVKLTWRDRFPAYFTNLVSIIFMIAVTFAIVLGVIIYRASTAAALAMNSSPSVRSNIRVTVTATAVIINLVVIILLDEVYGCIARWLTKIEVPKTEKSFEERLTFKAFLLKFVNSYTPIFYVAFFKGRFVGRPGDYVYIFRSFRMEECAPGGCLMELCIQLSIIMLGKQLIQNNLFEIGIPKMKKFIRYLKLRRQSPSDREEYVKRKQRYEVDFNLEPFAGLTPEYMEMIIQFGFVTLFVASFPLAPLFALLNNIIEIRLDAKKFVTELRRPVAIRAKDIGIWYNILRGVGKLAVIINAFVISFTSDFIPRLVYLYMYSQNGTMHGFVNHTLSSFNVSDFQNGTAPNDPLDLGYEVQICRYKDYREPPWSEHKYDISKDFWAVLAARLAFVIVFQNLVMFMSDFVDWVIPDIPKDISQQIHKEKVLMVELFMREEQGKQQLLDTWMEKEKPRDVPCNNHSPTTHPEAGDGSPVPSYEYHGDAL
Assay: Inside-out patch recording of 1PBC block, mutant I516A
Type: cell-based
Details: for remaining activity at 1 µM: 1PBC 1; for remaining activity at 1 µM / remaining activity at 3 µM / remaining activity at 10 µM / remaining activity at 30 µM / remaining activity at 100 µM: read-out: fraction of unblocked current; for remaining activity at 3 µM: 1PBC 3; for remaining activity at 10 µM: 1PBC 10; for remaining activity at 30 µM: 1PBC 30; for remaining activity at 100 µM: 1PBC 100
Experimental: HEK293T cells (ATCC CRL-1573) were maintained in Dulbecco’s modified Eagle’s medium (DMEM; Sigma-Aldrich) supplemented with 10 U ml^−1 penicillin, 0.1 mg ml^−1 streptomycin (Sigma-Aldrich), 2 mM L-glutamine (Sigma-Aldrich), and 10% FBS (Sigma-Aldrich) in a humidified atmosphere containing 5% CO2 at 37 °C. HEK293S GnTI^− cells (ATCC CRL-3022) were maintained in HyClone HyCell TransFx-H medium (GE Healthcare) supplemented with 10 U ml^−1 penicillin, 0.1 mg ml^−1 streptomycin, 4 mM L-glutamine, 0.15% poloxamer 188 (Sigma-Aldrich), and 1% FBS in an atmosphere containing 5% CO2 at 185 rpm at 37 °C. The ac splice variant of mouse TMEM16A (UniProt ID: Q8BHY3), mouse TMEM16B (UniProt ID: Q8CFW1), or mouse TMEM16F (UniProt ID: Q6P9J9) bearing a 3C cleavage site, a Venus YFP, a Myc tag, and a Streptavidin-binding peptide (SBP) downstream of the open reading frame in a modified pcDNA3.1 vector (Invitrogen) were used as described previously[21],[31]. Mutations were introduced using a modified QuikChange method[58] and were verified by sequencing.
HEK293T cells were transfected with 3–4 μg DNA per 6 cm Petri dish using the calcium phosphate co-precipitation method and were used within 24–96 h after transfection. Recordings were performed on inside-out patches excised from HEK293T cells expressing the construct of interest. Patch pipettes were pulled from borosilicate glass capillaries (O.D. 1.5 mm, I.D. 0.86 mm, Sutter Instrument) and were fire-polished with a microforge (Narishige) before use. Pipette resistance was typically 3–8 MΩ when filled with the recording solutions detailed below. Seal resistance was typically 4 GΩ or higher. Voltage-clamp recordings were made using Axopatch 200B, Digidata 1550, and Clampex 10.7 (Molecular Devices). Analog signals were filtered with the in-built 4-pole Bessel filter at 10 kHz and were digitized at 20 kHz. Solution exchange was achieved using a gravity-fed system through a theta glass pipette mounted on an ultra-fast piezo-driven stepper (Siskiyou). […] All recordings were performed at 20 °C.
A symmetrical ionic condition was used throughout. Stock solution with Ca^2+-EGTA contained 150 mM NaCl, 5.99 mM Ca(OH)2, 5 mM EGTA, and 10 mM HEPES at pH 7.40. Stock solution with EGTA contained 150 mM NaCl, 5 mM EGTA, and 10 mM HEPES at pH 7.40. Free Ca^2+ concentrations were adjusted by mixing the stock solutions at the required ratios calculated using the WEBMAXC program (http://web.stanford.edu/~cpatton/webmaxcS.htm). Patch pipettes were filled with the stock solution with Ca^2+-EGTA, which has a free Ca^2+ concentration of 1 mM. 1PBC (ChemBridge) stock was reconstituted in anhydrous DMSO (Sigma-Aldrich) at 100 mM and stored at −20 °C. Working solutions with 1PBC were prepared by serial dilution. Unless otherwise stated, experiments were performed at a saturating Ca^2+ concentration as shown in Supplementary Table 1 and the primary data were corrected for current rundown as described previously[21],[25].
Concentration-response relations, obtained from the ratio of the I-V plots before and after the application of the blocker, were fitted to the Hill equation,1 I/Imax=1/1+IC50/[blocker]^h where I/Imax is the normalized current responses, IC50 defines the concentration at which inhibition is at its half-maximum, and h is the Hill coefficient.

Question: Which results are given for `N#Cc1c(C(F)(F)F)cc(O)n2c1nc1ccccc12` [1PBC]?
Answer: IC50 (0 mV, 2 µM Ca2+): 5.69 µM; remaining activity at 1 µM (0 mV): 81.6%; remaining activity at 1 µM (20 mV): 79%; remaining activity at 1 µM (40 mV): 76.3%; remaining activity at 1 µM (60 mV): 76.1%; remaining activity at 1 µM (80 mV): 76%; remaining activity at 1 µM (100 mV): 78.2%; remaining activity at 1 µM (120 mV): 80.5%; remaining activity at 1 µM (140 mV): 85%; remaining activity at 1 µM (-20 mV): 84.2%; remaining activity at 1 µM (-40 mV): 86.9%; remaining activity at 1 µM (-60 mV): 90.5%; remaining activity at 1 µM (-80 mV): 93.4%; remaining activity at 1 µM (-100 mV): 94.6%; remaining activity at 1 µM (-120 mV): 96.7%; remaining activity at 1 µM (-140 mV): 99.6%; remaining activity at 3 µM (0 mV): 66.1%; remaining activity at 3 µM (20 mV): 63.1%; remaining activity at 3 µM (40 mV): 60.5%; remaining activity at 3 µM (60 mV): 57.3%; remaining activity at 3 µM (80 mV): 57.5%; remaining activity at 3 µM (100 mV): 58.7%; remaining activity at 3 µM (120 mV): 60.2%; remaining activity at 3 µM (140 mV): 62.8%; remaining activity at 3 µM (-20 mV): 69.1%; remaining activity at 3 µM (-40 mV): 74.1%; remaining activity at 3 µM (-60 mV): 78.3%; remaining activity at 3 µM (-80 mV): 81.5%; remaining activity at 3 µM (-100 mV): 84.3%; remaining activity at 3 µM (-120 mV): 86.9%; remaining activity at 3 µM (-140 mV): 88%; remaining activity at 10 µM (0 mV): 37.2%; remaining activity at 10 µM (20 mV): 33.9%; remaining activity at 10 µM (40 mV): 31.3%; remaining activity at 10 µM (60 mV): 30.4%; remaining activity at 10 µM (80 mV): 30.4%; remaining activity at 10 µM (100 mV): 30.4%; remaining activity at 10 µM (120 mV): 31.9%; remaining activity at 10 µM (140 mV): 35.1%; remaining activity at 10 µM (-20 mV): 40.4%; remaining activity at 10 µM (-40 mV): 43.9%; remaining activity at 10 µM (-60 mV): 48.6%; remaining activity at 10 µM (-80 mV): 50.8%; remaining activity at 10 µM (-100 mV): 55.1%; remaining activity at 10 µM (-120 mV): 58%; remaining activity at 10 µM (-140 mV): 60.3%; remaining activity at 30 µM (0 mV): 16.3%; remaining activity at 30 µM (20 mV): 15%; remaining activity at 30 µM (40 mV): 13.7%; remaining activity at 30 µM (60 mV): 12.5%; remaining activity at 30 µM (80 mV): 12.7%; remaining activity at 30 µM (100 mV): 13.1%; remaining activity at 30 µM (120 mV): 14.6%; remaining activity at 30 µM (140 mV): 16.7%; remaining activity at 30 µM (-20 mV): 17.7%; remaining activity at 30 µM (-40 mV): 19.9%; remaining activity at 30 µM (-60 mV): 22.8%; remaining activity at 30 µM (-80 mV): 25.3%; remaining activity at 30 µM (-100 mV): 28%; remaining activity at 30 µM (-120 mV): 31.5%; remaining activity at 30 µM (-140 mV): 34.4%; remaining activity at 100 µM (0 mV): 6.15%; remaining activity at 100 µM (20 mV): 5.12%; remaining activity at 100 µM (40 mV): 5.16%; remaining activity at 100 µM (60 mV): 5.16%; remaining activity at 100 µM (80 mV): 5.57%; remaining activity at 100 µM (100 mV): 6.35%; remaining activity at 100 µM (120 mV): 6.87%; remaining activity at 100 µM (140 mV): 7.57%; remaining activity at 100 µM (-20 mV): 7.18%; remaining activity at 100 µM (-40 mV): 7.63%; remaining activity at 100 µM (-60 mV): 9.24%; remaining activity at 100 µM (-80 mV): 10.6%; remaining activity at 100 µM (-100 mV): 12.4%; remaining activity at 100 µM (-120 mV): 14.7%; remaining activity at 100 µM (-140 mV): 17.2%; IC50 (20 mV, 2 µM Ca2+): 4.91 µM; IC50 (40 mV, 2 µM Ca2+): 4.32 µM; IC50 (60 mV, 2 µM Ca2+): 3.97 µM; log-fold IC50 (change of mutant vs WT) (80 mV): 0.3402; IC50 (80 mV, 2 µM Ca2+): 4 µM; IC50 (100 mV, 2 µM Ca2+): 4.22 µM; IC50 (120 mV, 2 µM Ca2+): 4.6 µM; IC50 (140 mV, 2 µM Ca2+): 5.41 µM; IC50 (-20 mV, 2 µM Ca2+): 6.57 µM; IC50 (-40 mV, 2 µM Ca2+): 7.87 µM; IC50 (-60 mV, 2 µM Ca2+): 9.65 µM; IC50 (-80 mV, 2 µM Ca2+): 11 µM; IC50 (-100 mV, 2 µM Ca2+): 12.9 µM; IC50 (-120 mV, 2 µM Ca2+): 15 µM; IC50 (-140 mV, 2 µM Ca2+): 17 µM; IC50 (I516A, V 0 mV): 5.69 µM; IC50 (I516A, V 20 mV): 4.91 µM; IC50 (I516A, V 40 mV): 4.32 µM; IC50 (I516A, V 60 mV): 3.97 µM; IC50 (I516A, V 80 mV): 4 µM; IC50 (I516A, V 100 mV): 4.22 µM; IC50 (I516A, V 120 mV): 4.6 µM; IC50 (I516A, V 140 mV): 5.41 µM; IC50 (I516A, V -20 mV): 6.57 µM; IC50 (I516A, V -40 mV): 7.87 µM; IC50 (I516A, V -60 mV): 9.65 µM; IC50 (I516A, V -80 mV): 11 µM; IC50 (I516A, V -100 mV): 12.9 µM; IC50 (I516A, V -120 mV): 15 µM; IC50 (I516A, V -140 mV): 17 µM
